Assay results taken from ChEMBL document CHEMBL1909046, “DrugMatrix in vitro pharmacology data”.

Columns and labels:
[1] = DRUGMATRIX: Atrial Natriuretic Factor (ANF) radioligand binding (ligand: [125I] ANF (rat)); type: cell membranes, Cavia porcellus, Dunkin-Hartley, Adrenal gland, Membrane; conditions: Not Active = under 50% inhibition at 10 µM
Cathepsin G = target: T1, Cathepsin G (Homo sapiens, UniProt P08311); type: tissue-based; conditions: neutrophil;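 also: inhibition of Cathepsin G enzyme activity, tested on an AMC-conjugated peptide substrate; in other assays of this panel Not Active means under 50% inhibition at 10 µM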
T1 sequence (P08311 whole entry): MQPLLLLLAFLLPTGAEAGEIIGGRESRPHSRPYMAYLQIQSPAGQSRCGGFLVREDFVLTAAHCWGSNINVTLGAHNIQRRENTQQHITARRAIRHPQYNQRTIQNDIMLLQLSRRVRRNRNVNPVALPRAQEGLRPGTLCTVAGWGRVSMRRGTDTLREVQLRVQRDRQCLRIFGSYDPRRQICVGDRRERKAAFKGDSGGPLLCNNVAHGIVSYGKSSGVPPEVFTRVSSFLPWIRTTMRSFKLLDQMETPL

[2] = target: T2, Vasoactive intestinal polypeptide receptor 1 (Homo sapiens, UniProt P32241); type: cell membranes, Membrane; conditions: ht-29; also: in other assays of this panel Not Active means under 50% inhibition at 10 µM
T2 sequence (P32241 whole entry): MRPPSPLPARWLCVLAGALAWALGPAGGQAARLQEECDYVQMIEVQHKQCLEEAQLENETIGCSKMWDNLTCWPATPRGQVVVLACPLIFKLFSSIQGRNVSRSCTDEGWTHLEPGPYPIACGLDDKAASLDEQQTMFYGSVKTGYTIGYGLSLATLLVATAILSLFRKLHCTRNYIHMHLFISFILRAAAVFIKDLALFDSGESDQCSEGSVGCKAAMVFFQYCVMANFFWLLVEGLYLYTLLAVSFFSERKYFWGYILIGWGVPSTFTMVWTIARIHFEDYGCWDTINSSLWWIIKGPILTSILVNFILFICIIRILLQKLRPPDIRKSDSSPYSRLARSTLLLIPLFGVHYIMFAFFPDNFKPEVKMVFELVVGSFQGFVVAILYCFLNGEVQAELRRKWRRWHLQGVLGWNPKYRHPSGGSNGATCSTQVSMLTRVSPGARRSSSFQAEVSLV

[3] = DRUGMATRIX: Serotonin (5-Hydroxytryptamine) 5-HT3 radioligand binding (ligand: [3H] GR-65630); type: cell membranes, Membrane; conditions: hek293; Not Active = under 50% inhibition at 10 µM
[4] = target: 5-hydroxytryptamine receptor 1B (Rattus norvegicus, UniProt P28564); type: cell membranes, Wistar, Cerebral cortex, Membrane; conditions: for Ki: read-out: Ki; as to all read-outs here: in other assays of this panel Not Active means under 50% inhibition at 10 µM
[5] = target: T3, 3-hydroxy-3-methylglutaryl-coenzyme A reductase (Homo sapiens, UniProt P04035); parameters: species or system Escherichia coli;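 also: enzyme inhibition assay of HMG-CoA reductase using radiolabeled [14C]HMG-CoA as substrate; in other assays of this panel Not Active means under 50% inhibition at 10 µM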
T3 sequence (P04035 whole entry): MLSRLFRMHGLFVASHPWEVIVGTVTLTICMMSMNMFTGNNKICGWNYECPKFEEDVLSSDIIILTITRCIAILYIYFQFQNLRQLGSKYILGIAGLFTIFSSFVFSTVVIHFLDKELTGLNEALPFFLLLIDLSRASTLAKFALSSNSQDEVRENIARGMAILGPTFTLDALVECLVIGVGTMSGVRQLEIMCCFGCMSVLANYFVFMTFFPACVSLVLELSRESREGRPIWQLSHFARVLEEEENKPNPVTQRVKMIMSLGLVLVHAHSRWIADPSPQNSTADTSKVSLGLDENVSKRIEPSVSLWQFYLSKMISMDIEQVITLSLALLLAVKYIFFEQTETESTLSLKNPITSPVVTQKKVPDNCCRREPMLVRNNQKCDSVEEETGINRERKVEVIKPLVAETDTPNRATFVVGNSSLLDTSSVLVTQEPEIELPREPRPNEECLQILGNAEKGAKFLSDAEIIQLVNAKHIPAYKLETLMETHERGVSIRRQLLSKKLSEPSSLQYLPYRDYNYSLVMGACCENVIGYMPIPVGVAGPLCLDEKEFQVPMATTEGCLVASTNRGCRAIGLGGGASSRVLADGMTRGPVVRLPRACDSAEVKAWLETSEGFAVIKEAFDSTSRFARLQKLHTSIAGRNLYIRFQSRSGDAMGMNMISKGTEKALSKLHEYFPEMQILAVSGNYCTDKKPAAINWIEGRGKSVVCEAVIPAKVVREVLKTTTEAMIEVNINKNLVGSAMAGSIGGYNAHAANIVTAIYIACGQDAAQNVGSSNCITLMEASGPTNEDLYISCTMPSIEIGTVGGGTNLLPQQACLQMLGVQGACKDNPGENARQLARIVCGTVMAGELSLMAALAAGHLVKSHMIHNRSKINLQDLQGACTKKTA

[6] = target: T4, C-X-C chemokine receptor type 1 (Homo sapiens, UniProt P25024); also: in other assays of this panel Not Active means under 50% inhibition at 10 µM
T4 sequence (P25024 whole entry): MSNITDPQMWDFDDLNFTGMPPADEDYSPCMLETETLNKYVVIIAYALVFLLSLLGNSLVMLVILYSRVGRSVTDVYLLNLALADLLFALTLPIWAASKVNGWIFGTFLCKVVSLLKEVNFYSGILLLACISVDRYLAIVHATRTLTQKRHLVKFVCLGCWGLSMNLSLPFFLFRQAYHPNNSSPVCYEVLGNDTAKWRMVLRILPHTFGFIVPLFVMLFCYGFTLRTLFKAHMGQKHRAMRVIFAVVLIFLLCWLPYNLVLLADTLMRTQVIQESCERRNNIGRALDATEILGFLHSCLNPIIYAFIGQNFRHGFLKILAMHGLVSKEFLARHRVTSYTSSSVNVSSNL

[7] = target: T5, Alpha-2C adrenergic receptor (Homo sapiens, UniProt P18825); test: DRUGMATRIX: Adrenergic Alpha-2C radioligand binding (ligand: [3H] MK-912); type: cell membranes, Sf9, Membrane
T5 sequence (P18825 whole entry): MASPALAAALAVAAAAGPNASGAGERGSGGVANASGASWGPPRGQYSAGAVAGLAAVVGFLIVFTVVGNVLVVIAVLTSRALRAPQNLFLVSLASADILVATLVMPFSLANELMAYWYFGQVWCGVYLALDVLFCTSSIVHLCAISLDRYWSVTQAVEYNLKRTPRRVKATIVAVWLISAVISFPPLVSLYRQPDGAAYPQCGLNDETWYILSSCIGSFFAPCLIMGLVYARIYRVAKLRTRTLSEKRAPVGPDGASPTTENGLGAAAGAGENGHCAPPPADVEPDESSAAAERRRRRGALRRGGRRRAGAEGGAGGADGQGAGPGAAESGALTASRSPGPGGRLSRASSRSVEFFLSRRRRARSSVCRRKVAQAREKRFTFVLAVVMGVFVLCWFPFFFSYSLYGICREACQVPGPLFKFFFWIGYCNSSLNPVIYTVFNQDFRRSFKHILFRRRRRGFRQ

[8] = target: Receptor tyrosine-protein kinase erbB-2 (Homo sapiens, UniProt P04626); test: biochemical; type: cell-based, Insect cells
Receptor tyrosine-protein kinase erbB-2, sequence (P04626 whole entry): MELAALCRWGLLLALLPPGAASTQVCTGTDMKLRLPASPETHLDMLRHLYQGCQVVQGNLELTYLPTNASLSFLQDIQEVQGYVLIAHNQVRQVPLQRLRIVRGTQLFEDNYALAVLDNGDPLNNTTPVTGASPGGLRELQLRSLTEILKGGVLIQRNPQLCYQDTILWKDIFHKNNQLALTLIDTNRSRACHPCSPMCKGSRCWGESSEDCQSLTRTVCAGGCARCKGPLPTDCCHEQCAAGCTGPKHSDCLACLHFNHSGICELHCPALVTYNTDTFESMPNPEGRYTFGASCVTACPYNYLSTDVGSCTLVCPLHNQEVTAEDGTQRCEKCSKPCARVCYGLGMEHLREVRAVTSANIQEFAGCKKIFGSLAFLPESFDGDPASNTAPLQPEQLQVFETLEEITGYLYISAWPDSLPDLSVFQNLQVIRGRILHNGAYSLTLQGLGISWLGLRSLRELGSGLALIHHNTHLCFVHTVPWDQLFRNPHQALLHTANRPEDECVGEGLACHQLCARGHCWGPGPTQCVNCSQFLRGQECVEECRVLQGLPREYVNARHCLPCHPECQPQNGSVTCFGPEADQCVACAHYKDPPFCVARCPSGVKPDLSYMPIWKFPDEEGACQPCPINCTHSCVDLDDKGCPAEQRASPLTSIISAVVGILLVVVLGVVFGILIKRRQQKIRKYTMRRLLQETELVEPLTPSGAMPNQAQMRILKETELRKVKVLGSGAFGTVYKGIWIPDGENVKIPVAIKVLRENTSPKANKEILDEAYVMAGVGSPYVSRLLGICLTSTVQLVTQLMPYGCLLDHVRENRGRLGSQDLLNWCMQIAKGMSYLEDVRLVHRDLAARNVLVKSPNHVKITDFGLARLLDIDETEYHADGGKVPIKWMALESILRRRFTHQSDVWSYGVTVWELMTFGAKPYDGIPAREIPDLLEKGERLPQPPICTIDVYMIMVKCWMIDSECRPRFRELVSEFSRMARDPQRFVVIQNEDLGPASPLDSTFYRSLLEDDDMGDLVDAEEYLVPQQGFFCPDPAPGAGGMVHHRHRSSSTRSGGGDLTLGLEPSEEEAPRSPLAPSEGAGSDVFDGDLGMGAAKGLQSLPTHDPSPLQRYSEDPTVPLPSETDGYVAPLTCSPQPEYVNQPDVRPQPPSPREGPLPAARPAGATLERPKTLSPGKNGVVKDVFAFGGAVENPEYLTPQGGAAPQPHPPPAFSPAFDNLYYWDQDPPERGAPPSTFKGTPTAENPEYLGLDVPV

5-hydroxytryptamine receptor 1B, sequence (P28564 whole entry): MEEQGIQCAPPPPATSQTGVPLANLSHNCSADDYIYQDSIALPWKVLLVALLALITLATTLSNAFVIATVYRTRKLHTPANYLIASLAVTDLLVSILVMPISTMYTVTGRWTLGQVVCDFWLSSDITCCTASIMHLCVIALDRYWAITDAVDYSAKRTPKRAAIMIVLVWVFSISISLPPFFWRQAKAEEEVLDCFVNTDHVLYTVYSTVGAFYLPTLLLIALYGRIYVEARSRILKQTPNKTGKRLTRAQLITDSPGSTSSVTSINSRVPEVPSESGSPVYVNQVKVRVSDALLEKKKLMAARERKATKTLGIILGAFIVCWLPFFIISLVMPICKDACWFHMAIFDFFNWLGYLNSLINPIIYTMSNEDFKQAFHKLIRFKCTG

SMILES | IC50 [1] | Ki [1] | IC50 (Cathepsin G) | IC50 [2] | IC50 [3] | Ki [3] | IC50 [4] | IC50 [5] | IC50 [6] | IC50 ([7]; sf9) | IC50 ([8]; insect cells) | IC50 ([4]; read-out: IC50) | Ki [4] | IC50 ([8]; read-out: IC50) | IC50 ([7]; read-out: IC50) | Ki ([7]; read-out: Ki)
CCOC(=O)[C@H](CCc1ccccc1)N[C@@H](C)C(=O)N1[C@H](C(=O)O)C[C@@H]2CCC[C@@H]21 | Not Active | Not Active | Not Active | Not Active | Not Active | Not Active | Not Active | Not Active | Not Active | Not Active | Not Active | – | – | – | – | –
CC(C)(C)NC(=O)[C@@H]1CN(Cc2cccnc2)CCN1C[C@@H](O)C[C@@H](Cc1ccccc1)C(=O)N[C@H]1c2ccccc2C[C@H]1O.O | Not Active | Not Active | Not Active | Not Active | Not Active | Not Active | Not Active | Not Active | Not Active | Not Active | Not Active | – | – | – | – | –
CC1(C)[C@H]2CC[C@]1(C)C(=O)C2 [(-)-CAMPHOR] | Not Active | Not Active | Not Active | Not Active | Not Active | Not Active | Not Active | Not Active | Not Active | Not Active | Not Active | – | – | – | – | –
CC(C)(C)NCC(O)c1ccc(O)c(CO)c1 (centres undefined) [ALBUTEROL] | Not Active | Not Active | Not Active | Not Active | Not Active | Not Active | Not Active | Not Active | Not Active | Not Active | Not Active | – | – | – | – | –
COc1ccc(CCN2CCC(Nc3nc4ccccc4n3Cc3ccc(F)cc3)CC2)cc1 [ASTEMIZOLE] | – | – | Not Active | Not Active | – | – | – | Not Active | Not Active | – | – | 1.39 µM | 0.63 µM | 13.1 µM | – | –
CN(C)CCCN1c2ccccc2CCc2ccc(Cl)cc21 [CLOMIPRAMINE] | – | – | Not Active | Not Active | – | – | Not Active | Not Active | Not Active | – | Not Active | – | – | – | – | –
Clc1ccccc1C(c1ccccc1)(c1ccccc1)n1ccnc1 [CLOTRIMAZOLE] | – | – | Not Active | Not Active | – | – | – | Not Active | Not Active | – | – | 27.3 µM | 12.4 µM | 66.4 µM | – | –
O=C(CCCN1CCC(O)(c2ccc(Cl)cc2)CC1)c1ccc(F)cc1 [HALOPERIDOL] | – | – | Not Active | Not Active | – | – | Not Active | Not Active | Not Active | – | Not Active | – | – | – | – | –
Oc1c(I)cc(I)c2cccnc12 [IODOQUINOL] | Not Active | Not Active | Not Active | Not Active | Not Active | Not Active | Not Active | Not Active | Not Active | Not Active | – | – | – | 8.58 µM | – | –
NNC(=O)c1ccncc1 [ISONIAZID] | Not Active | Not Active | Not Active | Not Active | Not Active | Not Active | Not Active | Not Active | Not Active | Not Active | Not Active | – | – | – | – | –
CN1CCN2c3ccccc3Cc3ccccc3C2C1 (centres undefined) [MIANSERIN] | – | – | Not Active | Not Active | – | – | Not Active | Not Active | Not Active | – | Not Active | – | – | – | 0.179 µM | 0.026 µM
CC(C)(O)c1ccccc1CC[C@@H](SCC1(CC(=O)O)CC1)c1cccc(/C=C/c2ccc3ccc(Cl)cc3n2)c1 [MONTELUKAST] | – | – | Not Active | Not Active | – | – | Not Active | Not Active | Not Active | – | Not Active | – | – | – | – | –
CSc1ccc2c(c1)N(CCC1CCCCN1C)c1ccccc1S2 (centres undefined) [THIORIDAZINE] | – | – | Not Active | Not Active | – | – | Not Active | Not Active | Not Active | – | Not Active | – | – | – | – | –
COc1cccc(C2(O)CCCCC2CN(C)C)c1 (centres undefined) [TRAMADOL] | – | – | Not Active | Not Active | – | – | Not Active | Not Active | Not Active | Not Active | Not Active | – | – | – | – | –
COC(=O)[C@@H]1[C@H]2C[C@H]3c4[nH]c5ccccc5c4CCN3C[C@@H]2CC[C@@H]1O [YOHIMBINE] | Not Active | Not Active | Not Active | Not Active | Not Active | Not Active | Not Active | Not Active | Not Active | – | Not Active | – | – | – | – | –
